Test results: patent US4393225A, “AI-77 Compounds and pharmaceutically acceptable salts thereof” (Asahi Kasei Kogyo Kabushiki Kaisha, priority 1979, dated 1983)

The compounds below were run on ulcer (assay: Anti-ulcer test (restraint and water immersion ulcer in rats, i.p.)). Conditions: Rattus norvegicus, ip, read-out: % Inhibition of Ulcer.
Type: in vivo, Male Wistar rats
Summary of the method: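 Compound given intraperitoneally in saline to 24 h-fasted male Wistar rats about 150 g, followed after one hour by 6 h restraint with water immersion at 21 °C. Gastric lesions graded 0, 0.5, 1, 2 or 3 on microscopic inspection and converted to percent ulcer inhibition.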

Structure (SMILES)	inhibition in vivo at 25 mg/kg [%]
CCCCCNC(CC(N)=O)C(O)C(O)C(=O)NC(CC(C)C)C1Cc2cccc(O)c2C(=O)O1 (centres unmarked) [VII-10-2]	94

Same assay, conditions: Rattus norvegicus, ip; 25 mg/kg i.p.; read-out: % Inhibition of Ulcer

Structure (SMILES)	inhibition in vivo at 25 mg/kg [%]
CC(C)CC(NC(=O)C(O)C(O)C(N)CC(=O)NCC1CCCCCCC1)C1Cc2cccc(O)c2C(=O)O1 (centres unmarked) [VII-1-33]	83
CNC(CC(N)=O)C(O)C(OC)C(=O)NC(CC(C)C)C1Cc2cccc(O)c2C(=O)O1 (centres unmarked) [VII-26-1]	89
CC(=O)OC(C(=O)NC(CC(C)C)C1Cc2cccc(O)c2C(=O)O1)C(O)C(N)CC(N)=O (centres unmarked) [VII-2-1]	78
CCOc1cccc2c1C(=O)OC(C(CC(C)C)NC(=O)C(OC(=O)C(C)C)C(O)C(N)CC(N)=O)C2 (centres unmarked) [VII-6-2]	66
CC(=O)NC(CC(N)=O)C(O)C(O)C(=O)NC(CC(C)C)C1Cc2cccc(OC(C)=O)c2C(=O)O1 (centres unmarked) [VII-31-1]	89
CCNC(CC(N)=O)C(O)C(OC(C)=O)C(=O)NC(CC(C)C)C1Cc2cccc(O)c2C(=O)O1 (centres unmarked) [VII-11-1]	72
CNC(CC(N)=O)C(O)C(O)C(=O)NC(CC(C)C)C1Cc2cccc(OC)c2C(=O)O1 (centres unmarked) [VII-23-5]	89
CCCCCCCCNC(CC(N)=O)C(O)C(O)C(=O)NC(CC(C)C)C1Cc2cccc(O)c2C(=O)O1 (centres unmarked) [VII-10-3]	94
CC(C)=CCCC(C)=CCNC(=O)CC(N)C(O)C(O)C(=O)NC(CC(C)C)C1Cc2cccc(O)c2C(=O)O1 (centres unmarked) [VII-1-30]	83

Same assay, conditions: Rattus norvegicus, ip; 50 mg/kg i.p.; read-out: % Inhibition of Ulcer

Structure (SMILES)	inhibition in vivo at 50 mg/kg [%]
CC(=O)OC(C(=N)NC(CC(C)C)C1Cc2cccc(O)c2C(=O)O1)C(O)C(CC(=O)O)NCCC(C)C (centres unmarked) [Vb-11-2]	66
CCCCCSc1ccc(C(=O)NC2CC(=O)OC2C(O)C(=O)NC(CC(C)C)C2Cc3cccc(OCC)c3C(=O)O2)cc1 (centres unmarked) [IIIa-5-46]	33
CC(C)CC(NC(=O)C(O)C1OC(=O)CC1NC(=O)c1nnnn1C)C1Cc2cccc(O)c2C(=O)O1 (centres unmarked) [IIIa-1-27]	66
CCCCNC1CC(=O)OC1C(O)C(=O)NC(CC(C)C)C1Cc2cccc(OCCCl)c2C(=O)O1 (centres unmarked) [IIIa-22-79]	94
CCOc1cccc2c1C(=O)OC(C(CC(C)C)NC(=O)C(O)C1OC(=O)CC1NC(=O)CC(C)OC)C2 (centres unmarked) [IIIa-5-41]	33
Cc1ccc(C(=O)Oc2cccc3c2C(=O)OC(C(CC(C)C)NC(=O)C(O)C2OC(=O)CC2N)C3)cc1 (centres unmarked) [IIIa-12-7]	78
CC(C)CC(NC(=O)C(O)C1OC(=O)CC1NC(=O)C(C)C)C1Cc2cccc(O)c2C(=O)O1 (centres unmarked) [IIIa-1-4]	66
CCCCCCCCC=CCCCCCCCC(=O)Oc1cccc2c1C(=O)OC(C(CC(C)C)NC(=O)C(O)C1C=CC(=O)O1)C2 (centres unmarked) [IVa-3-12]	33
CCNC(CC(=O)O)C(O)C(O)C(=N)NC(CC(C)C)C1Cc2cccc(O)c2C(=O)O1 (centres unmarked) [Vb-10-1]	94
CC(C)CC(NC(=O)C(O)C1C=CC(=O)O1)C1Cc2cccc(OCCCl)c2C(=O)O1 (centres unmarked) [IVa-4-6]	44
Cc1ccc(CC(=O)NC2CC(=O)OC2C(O)C(=O)NC(CC(C)C)C2Cc3cccc(O)c3C(=O)O2)cc1 (centres unmarked) [IIIa-1-65]	66
CCCCNC1CC(=O)OC1C(OC(=O)CCC)C(=O)NC(CC(C)C)C1Cc2cccc(O)c2C(=O)O1 (centres unmarked) [IIIa-19-10]	66
CC(C)CC(NC(=O)C(O)C1OC(=O)CC1NC(=O)C(Cl)(Cl)Cl)C1Cc2cccc(OC(=O)C(Cl)(Cl)Cl)c2C(=O)O1 (centres unmarked) [IIIa-4-9]	33
CNC1CC(=O)OC1C(O)C(=O)NC(CC(C)C)C1Cc2cccc(OCCC(C)C)c2C(=O)O1 (centres unmarked) [IIIa-31-4]	89
CCOc1cccc2c1C(=O)OC(C(CC(C)C)NC(=O)C(OC(=O)CC)C1OC(=O)CC1N)C2 (centres unmarked) [IIIa-14-9]	56
CCOc1cccc2c1C(=O)OC(C(CC(C)C)NC(=O)C(O)C1OC(=O)CC1NC(=O)Cc1ccccc1)C2 (centres unmarked) [IIIa-5-20]	44
CC(C)CCOc1ccc(C(=O)Oc2cccc3c2C(=O)OC(C(CC(C)C)NC(=O)C(O)C2OC(=O)CC2N)C3)cc1 (centres unmarked) [IIIa-12-8]	72
CC(C)CC(NC(=O)C(O)C1C=CC(=O)O1)C1Cc2cccc(OCCc3ccc4ccccc4c3)c2C(=O)O1 (centres unmarked) [IVa-4-18]	33
CCCC(=O)NC1CC(=O)OC1C(O)C(=O)NC(CC(C)C)C1Cc2cccc(OC(C)C)c2C(=O)O1 (centres unmarked) [IIIa-5-121]	33
CCCCCCCCC=CCCCCCCCC(=O)NC1CC(=O)OC1C(OC(C)=O)C(=O)NC(CC(C)C)C1Cc2cccc(OC(C)=O)c2C(=O)O1 (centres unmarked) [IIIa-3-5]	22
CCOc1cccc2c1C(=O)OC(C(CC(C)C)NC(=O)C(O)C1OC(=O)CC1NC(=O)C1CCC(C(=O)OC)CC1)C2 (centres unmarked) [IIIa-5-66]	44
CC(=O)Oc1cccc2c1C(=O)OC(C(CC(C)C)NC(=O)C(O)C1OC(=O)CC1N)C2 (centres unmarked) [IIIa-12-1]	78
CCOc1cccc2c1C(=O)OC(C(CC(C)C)NC(=O)C(O)C1OC(=O)CC1NC(=O)CC1CC1)C2 (centres unmarked) [IIIa-5-76]	33
CC(C)CC(NC(=O)C(O)C1OC(=O)CC1N)C1Cc2cccc(OC(=O)C(C)C)c2C(=O)O1 (centres unmarked) [IIIa-12-2]	78
CC(C)CC(NC(=O)C(O)C1C=CC(=O)O1)C1Cc2cccc(OC(=O)C(C)C)c2C(=O)O1 (centres unmarked) [IVa-3-10]	44
CCOc1cccc2c1C(=O)OC(C(CC(C)C)NC(=O)C(O)C1OC(=O)CC1NC(=O)C1CCCCC1=O)C2 (centres unmarked) [IIIa-5-33]	44
CC(C)CC(NC(=NCCN1CCCCC1)C(O)C(O)C(N)CC(=O)O)C1Cc2cccc(O)c2C(=O)O1 (centres unmarked) [Vb-1-45]	94
CSc1ccc(C(=O)NC2CC(=O)OC2C(O)C(=O)NC(CC(C)C)C2Cc3cccc(O)c3C(=O)O2)cc1 (centres unmarked) [IIIa-1-46]	66

Structure (SMILES)	inhibition in vivo at 50 mg/kg [%]
COC1CCC(C(=O)NC2CC(=O)OC2C(O)C(=O)NC(CC(C)C)C2Cc3cccc(O)c3C(=O)O2)CC1 (centres unmarked) [IIIa-1-73]	66
CC(C)CC(NC(=O)C(O)C1C=CC(=O)O1)C1Cc2cccc(OCc3ccco3)c2C(=O)O1 (centres unmarked) [IVa-4-13]	33
CCCCCCCCCCCCCCCCCCNC1CC(=O)OC1C(OC(C)=O)C(=O)NC(CC(C)C)C1Cc2cccc(O)c2C(=O)O1 (centres unmarked) [IIIa-19-3]	56
CCOc1cccc2c1C(=O)OC(C(CC(C)C)NC(=O)C(OC(C)=O)C1OC(=O)CC1NC(=O)c1ccc(OCCC(C)C)cc1)C2 (centres unmarked) [IIIa-6-9]	22
CCCCC(=O)OC(C(=O)NC(CC(C)C)C1Cc2cccc(O)c2C(=O)O1)C1C=CC(=O)O1 (centres unmarked) [IVa-1-6]	44
CNC1CC(=O)OC1C(O)C(=O)NC(CC(C)C)C1Cc2cccc(OC(C)=O)c2C(=O)O1 (centres unmarked) [IIIa-30-1]	78
CCCCOC(C(=O)NC(CC(C)C)C1Cc2cccc(OC)c2C(=O)O1)C1OC(=O)CC1NC (centres unmarked) [IIIa-33-1]	56
CSCC(=O)NC1CC(=O)OC1C(O)C(=O)NC(CC(C)C)C1Cc2cccc(O)c2C(=O)O1 (centres unmarked) [IIIa-1-44]	66
COC(C)CC(=O)NC1CC(=O)OC1C(OC(C)=O)C(=O)NC(CC(C)C)C1Cc2cccc(OC(C)=O)c2C(=O)O1 (centres unmarked) [IIIa-3-7]	33
CC(=O)Oc1cccc2c1C(=O)OC(C(CC(C)C)NC(=O)C(OC(=O)C(Cl)(Cl)Cl)C1OC(=O)CC1NC(=O)C(Cl)(Cl)Cl)C2 (centres unmarked) [IIIa-3-10]	33
CCCCOC(C(=N)NC(CC(C)C)C1Cc2cccc(OC)c2C(=O)O1)C(O)C(N)CC(=O)O (centres unmarked) [Vb-7-1]	72
CCCCOC(C(=O)NC(CC(C)C)C1Cc2cccc(OCC)c2C(=O)O1)C1OC(=O)CC1NC(=O)c1ccc(C)cc1 (centres unmarked) [IIIa-7-8]	22
CCCC(=O)NC1CC(=O)OC1C(OC(=O)CCC)C(=O)NC(CC(C)C)C1Cc2cccc(O)c2C(=O)O1 (centres unmarked) [IIIa-2-11]	33
CCNC1CC(=O)OC1C(OC(=O)CC)C(=O)NC(CC(C)C)C1Cc2cccc(O)c2C(=O)O1 (centres unmarked) [IIIa-19-9]	66
CCCCCNC(=O)C=CC(O)C(O)C(=O)NC(CC(C)C)C1Cc2cccc(O)c2C(=O)O1 (centres unmarked) [VIII-1-2]	56
CCCCCCCCC=CCCCCCCCC(=O)NC1CC(=O)OC1C(OCC)C(=O)NC(CC(C)C)C1Cc2cccc(OCC)c2C(=O)O1 (centres unmarked) [IIIa-7-5]	22
CCOc1cccc2c1C(=O)OC(C(CC(C)C)NC(=O)C(O)C1OC(=O)CC1N)C2 (centres unmarked) [IIIa-13-2]	94
CCNC1CC(=O)OC1C(O)C(=O)NC(CC(C)C)C1Cc2cccc(OCC(C)C)c2C(=O)O1 (centres unmarked) [IIIa-22-10]	83
CCCCCC(=O)OC(C)CC(=O)NC1CC(=O)OC1C(O)C(=O)NC(CC(C)C)C1Cc2cccc(OCC)c2C(=O)O1 (centres unmarked) [IIIa-5-48]	33
CCCCCC(=O)OC(C)CCOc1cccc2c1C(=O)OC(C(CC(C)C)NC(=O)C(OC)C1OC(=O)CC1NC(=O)CCC)C2 (centres unmarked) [IIIa-7-15]	33
CCCCN=C(NC(CC(C)C)C1Cc2cccc(OCC)c2C(=O)O1)C(O)C(O)C(N)CC(=O)O (centres unmarked) [Vb-5-2]	89
CCCCOC(C(=N)NC(CC(C)C)C1Cc2cccc(OCc3ccccc3)c2C(=O)O1)C(O)C(N)CC(=O)O (centres unmarked) [Vb-7-3]	56
CC(C)CC(NC(=O)C(O)C1OC(=O)CC1NC(=O)Cc1ccc2ccccc2c1)C1Cc2cccc(O)c2C(=O)O1 (centres unmarked) [IIIa-1-64]	56
CC(C)CC(NC(=O)C(O)C1OC(=O)CC1NC(=O)C1CCCCCCC1)C1Cc2cccc(O)c2C(=O)O1 (centres unmarked) [IIIa-1-62]	66
CC(C)CC(NC(=N)C(O)C(O)C(N)CC(=O)O)C1Cc2cccc(OC(=O)C(C)C)c2C(=O)O1 (centres unmarked) [Vb-4-1]	78
CCNC1CC(=O)OC1C(O)C(=O)NC(CC(C)C)C1Cc2cccc(OC(=O)CC)c2C(=O)O1 (centres unmarked) [IIIa-21-9]	66
CCNC1CC(=O)OC1C(OC(=O)CC)C(=O)NC(CC(C)C)C1Cc2cccc(OC(=O)C(C)C)c2C(=O)O1 (centres unmarked) [IIIa-20-2]	56
